# Values of other authors, collected in PMC8472685, “Nanocrystalline Suspensions of Irbesartan Enhance Oral Bioavailability by Improving Drug Solubility and Leading Endocytosis Uptake into the Intestine” (Pharmaceutics, 2021).
# Legend:
# [1] = for Aqueous solubility of crystalline form: forms A and B
# [2] = set-up: method as in PMID 9438775
# patients = system: patients; set-up: method as in PMID 9438776; settings: 300 mg dose
Compound,Aqueous solubility of crystalline form [1] [µg/mL],BCS class ([1]; low aqueous solubility and high permeability),Time of Cmax after oral administration [2] [h],Oral bioavailability (BA) ([2]; in patients),Decrease in BP from baseline (patients) [mmHg],Higher BP in treated compared to nontreated patients (so in the source) (patients)
"CCCCC1=NC2(CCCC2)C(=O)N1Cc1ccc(-c2ccccc2-c2nnn[nH]2)cc1 [form A, irbesartan]",11,–,–,–,–,–
"CCCCC1=NC2(CCCC2)C(=O)N1Cc1ccc(-c2ccccc2-c2nnn[nH]2)cc1 [form B, irbesartan]",0.6,–,–,–,–,–
CCCCC1=NC2(CCCC2)C(=O)N1Cc1ccc(-c2ccccc2-c2nnn[nH]2)cc1 [irbesartan],–,BCS class II,1.5 to 2,60–80%,10,approximately 70%
